# Data as given in PubChem BioAssay (NCI).
#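 Tested at 5 concentrations; 48 h exposure; 96-well plates; endpoints linearly interpolated, else capped at highest concentration. GI50 = concentration required for 50% inhibition of growth. TGI marks complete inhibition of growth.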
# Tests used:
# Assay in all cases: growth of human tumour cells (NCI), 48 h
# HCC-2998 colon = tested on: HCC-2998 colon
# MDA-MB-435 = tested on: MDA-MB-435
# NCI-H23 lung = tested on: NCI-H23 lung
# OVCAR-3 ovarian = tested on: OVCAR-3 ovarian
# OVCAR-4 ovarian = tested on: OVCAR-4 ovarian
# SF-295 CNS = tested on: SF-295 CNS
# SF-539 CNS = tested on: SF-539 CNS
# SR leukemia = tested on: SR leukemia
# TK-10 renal = tested on: TK-10 renal
# UACC-62 melanoma = tested on: UACC-62 melanoma
Structure (SMILES),TGI (HCC-2998 colon) [µM],TGI (MDA-MB-435) [µM],TGI (NCI-H23 lung) [µM],TGI (OVCAR-3 ovarian) [µM],TGI (OVCAR-4 ovarian) [µM],TGI (SF-295 CNS) [µM],TGI (SF-539 CNS) [µM],TGI (SR leukemia) [µM],TGI (TK-10 renal) [µM],TGI (UACC-62 melanoma) [µM],GI50 (HCC-2998 colon) [µM],GI50 (MDA-MB-435) [µM],GI50 (NCI-H23 lung) [µM],GI50 (OVCAR-3 ovarian) [µM],GI50 (OVCAR-4 ovarian) [µM],GI50 (SF-295 CNS) [µM],GI50 (SF-539 CNS) [µM],GI50 (SR leukemia) [µM],GI50 (TK-10 renal) [µM],GI50 (UACC-62 melanoma) [µM]
CN(CCN)[C@H](CSSC[C@@H](c1ccccc1O)N(C)CCN)c1ccccc1O,25.6,42.8,28.5,28.6,34,20.4,31.9,11.5,30.7,24.5,–,–,–,–,–,–,–,–,–,–
O=C(Nc1cccc(-n2ccc3c(NC(=O)c4ccccc4)ncnc32)c1)Nc1ccc(Cl)c(C(F)(F)F)c1,14.9,5.6,18.7,8.9,8.18,7.24,9.91,15,7.75,7.52,4.2,1.44,1.97,2.62,2.36,1.43,1.98,2.35,2.14,1.77
Nc1nc(Cl)c(CO)c(NCC2(CO)CCC2)n1,> 100,> 100,> 100,> 100,> 100,> 100,> 100,> 100,> 100,–,–,–,–,–,–,–,–,–,–,–
O=c1cc(-c2cccc(OC(F)(F)F)c2)[nH]c2ccc(N3CCCC3)cc12,0.011,< 0.0001,0.0502,0.000234,–,0.00048,0.000621,< 0.0001,6.79,96.8,–,–,–,–,–,–,–,–,0.0431,–
NC(CCC(=O)c1ccccn1)C(=O)O (stereo unspecified),> 100,> 100,> 100,> 100,> 100,> 100,> 100,> 100,> 100,> 100,–,–,–,–,–,–,–,–,–,–
OCCc1ccsc1-c1sc(-c2cc(CCO)c(-c3sc(-c4cc(CCO)c(-c5sccc5CCO)s4)cc3CCO)s2)cc1CCO,2.95,3.39,2.87,2.72,2.52,2.7,2.95,2.59,3.15,3.41,–,–,–,–,–,–,–,–,–,–
CSc1cc(Cl)c(C)cc1S(=O)(=O)NC(=O)NNc1ccc(C)cc1,66.1,> 100,–,> 100,> 100,> 100,> 100,> 100,–,–,–,–,–,–,–,–,–,–,–,–
COc1cc(/C=C(\C)[N+](=O)[O-])cc(OC)c1,55.5,28.3,37.1,31.8,33.5,53.6,16.9,7.04,26.1,28.7,–,–,–,–,–,–,–,–,–,–
O=C1c2cc3c(cc2NC(c2ccccc2F)C1O)OCO3 (stereo unspecified),> 75.1,13.6,> 91.5,> 62.7,> 84.9,43.6,35.2,> 37.9,73.1,64,–,–,–,–,–,–,–,–,–,–
Cc1ccc(S(=O)(=O)N/N=C2\C=CC3(CC2)C(=O)N(I)c2ccccc23)cc1 (stereo unspecified),> 100,> 100,> 100,> 100,> 100,> 100,> 100,> 100,> 100,> 100,–,–,–,–,–,–,–,–,–,–
